# Results from ChEMBL document CHEMBL2346657, “Synthesis of novel 2-amino-4-(5'-substituted 2'-phenyl-1H-indol-3'-yl)-6-aryl-4H-pyran-3-carbonitrile derivatives as antimicrobial and antioxidant agents” (2013).
# Activity calls are given as the source filed them. How the calls were made is not given here.
# How the values were obtained:
# Format in all cases: functional
# [1] = Antioxidant activity assessed as metal chelating activity by measuring inhibition of ferrozine-Fe2+ complex formation at 25 to 100 ug/ml
# [2] = test system: Aspergillus flavus; assay: Antimicrobial activity against Aspergillus flavus MTCC 1973 at 500 ug/ml after 72 hrs by cup plate method; conditions: MTCC 1973, 72 h, read-out: IZ
# [3] = test system: Aspergillus flavus; assay: Antimicrobial activity against Aspergillus flavus MTCC 1973 at 750 ug/ml after 72 hrs by cup plate method; conditions: MTCC 1973, 72 h, read-out: IZ
# [4] = test system: Aspergillus flavus; assay: Antimicrobial activity against Aspergillus flavus MTCC 1973 at 1000 ug/ml after 72 hrs by cup plate method; conditions: MTCC 1973, 72 h, read-out: IZ
# [5] = test system: Aspergillus terreus; assay: Antimicrobial activity against Aspergillus terreus MTCC 1782 at 500 ug/ml after 72 hrs by cup plate method; conditions: MTCC 1782, 72 h, read-out: IZ
# [6] = test system: Aspergillus terreus; assay: Antimicrobial activity against Aspergillus terreus MTCC 1782 at 750 ug/ml after 72 hrs by cup plate method; conditions: MTCC 1782, 72 h, read-out: IZ
# [7] = test system: Aspergillus terreus; assay: Antimicrobial activity against Aspergillus terreus MTCC 1782 at 1000 ug/ml after 72 hrs by cup plate method; conditions: MTCC 1782, 72 h, read-out: IZ
# [8] = test system: Aspergillus oryzae; assay: Antimicrobial activity against Aspergillus oryzae MTCC 3567 at 500 ug/ml after 72 hrs by cup plate method; conditions: MTCC 3567, 72 h, read-out: IZ
# [9] = test system: Aspergillus oryzae; assay: Antimicrobial activity against Aspergillus oryzae MTCC 3567 at 750 ug/ml after 72 hrs by cup plate method; conditions: MTCC 3567, 72 h, read-out: IZ
# [10] = test system: Aspergillus oryzae; assay: Antimicrobial activity against Aspergillus oryzae MTCC 3567 at 1000 ug/ml after 72 hrs by cup plate method; conditions: MTCC 3567, 72 h, read-out: IZ
# [11] = test system: Aspergillus niger; assay: Antimicrobial activity against Aspergillus niger MTCC 281 at 500 ug/ml after 72 hrs by cup plate method; conditions: MTCC 281, 72 h, read-out: IZ
# [12] = test system: Aspergillus niger; assay: Antimicrobial activity against Aspergillus niger MTCC 281 at 750 ug/ml after 72 hrs by cup plate method; conditions: MTCC 281, 72 h, read-out: IZ
# [13] = test system: Aspergillus niger; assay: Antimicrobial activity against Aspergillus niger MTCC 281 at 1000 ug/ml after 72 hrs by cup plate method; conditions: MTCC 281, 72 h, read-out: IZ
# [14] = test system: Pseudomonas aeruginosa; assay: Antimicrobial activity against Pseudomonas aeruginosa MTCC 1688 at 500 ug/ml after 24 hrs by cup plate method; conditions: MTCC 1688, 24 h, read-out: IZ
# [15] = test system: Pseudomonas aeruginosa; assay: Antimicrobial activity against Pseudomonas aeruginosa MTCC 1688 at 750 ug/ml after 24 hrs by cup plate method; conditions: MTCC 1688, 24 h, read-out: IZ
# [16] = test system: Pseudomonas aeruginosa; assay: Antimicrobial activity against Pseudomonas aeruginosa MTCC 1688 at 1000 ug/ml after 24 hrs by cup plate method; conditions: MTCC 1688, 24 h, read-out: IZ
# [17] = test system: Klebsiella pneumoniae; assay: Antimicrobial activity against Klebsiella pneumoniae NCTC 13368 at 500 ug/ml after 24 hrs by cup plate method; conditions: NCTC 13368, 24 h, read-out: IZ
# [18] = test system: Klebsiella pneumoniae; assay: Antimicrobial activity against Klebsiella pneumoniae NCTC 13368 at 750 ug/ml after 24 hrs by cup plate method; conditions: NCTC 13368, 24 h, read-out: IZ
# [19] = test system: Klebsiella pneumoniae; assay: Antimicrobial activity against Klebsiella pneumoniae NCTC 13368 at 1000 ug/ml after 24 hrs by cup plate method; conditions: NCTC 13368, 24 h, read-out: IZ
# [20] = test system: Staphylococcus aureus; assay: Antimicrobial activity against Staphylococcus aureus ATCC 29513 at 500 ug/ml after 24 hrs by cup plate method; conditions: ATCC 29513, 24 h, read-out: IZ
# [21] = test system: Staphylococcus aureus; assay: Antimicrobial activity against Staphylococcus aureus ATCC 29513 at 750 ug/ml after 24 hrs by cup plate method; conditions: ATCC 29513, 24 h, read-out: IZ
# [22] = test system: Staphylococcus aureus; assay: Antimicrobial activity against Staphylococcus aureus ATCC 29513 at 1000 ug/ml after 24 hrs by cup plate method; conditions: ATCC 29513, 24 h, read-out: IZ
# [23] = test system: Escherichia coli; assay: Antimicrobial activity against Escherichia coli MTCC 723 at 500 ug/ml after 24 hrs by cup plate method; conditions: MTCC 723, 24 h, read-out: IZ
# [24] = test system: Escherichia coli; assay: Antimicrobial activity against Escherichia coli MTCC 723 at 750 ug/ml after 24 hrs by cup plate method; conditions: MTCC 723, 24 h, read-out: IZ
# [25] = test system: Escherichia coli; assay: Antimicrobial activity against Escherichia coli MTCC 723 at 1000 ug/ml after 24 hrs by cup plate method; conditions: MTCC 723, 24 h, read-out: IZ
Structure (SMILES),zone of inhibition at 500 µg/mL [5] [mm],zone of inhibition at 750 µg/mL [6] [mm],zone of inhibition at 1000 µg/mL [7] [mm],zone of inhibition at 500 µg/mL [8] [mm],zone of inhibition at 750 µg/mL [9] [mm],zone of inhibition at 1000 µg/mL [10] [mm],zone of inhibition at 500 µg/mL [11] [mm],zone of inhibition at 750 µg/mL [12] [mm],zone of inhibition at 1000 µg/mL [13] [mm],zone of inhibition at 500 µg/mL [14] [mm],zone of inhibition at 750 µg/mL [15] [mm],zone of inhibition at 1000 µg/mL [16] [mm],zone of inhibition at 500 µg/mL [17] [mm],zone of inhibition at 750 µg/mL [18] [mm],zone of inhibition at 1000 µg/mL [19] [mm],zone of inhibition at 500 µg/mL [20] [mm],zone of inhibition at 750 µg/mL [21] [mm],zone of inhibition at 1000 µg/mL [22] [mm],zone of inhibition at 500 µg/mL [23] [mm],zone of inhibition at 750 µg/mL [24] [mm],other results
Cc1ccc2[nH]c(-c3ccccc3)c(C3C=C(c4ccc(Cl)cc4)Oc4[nH]c(=O)nc(N)c43)c2c1 (centres undefined),7,6,5,8,8,8,5,4,6,0,0,0,4,3,3,5,5,7,10,8,Activity [1]: Active; zone of inhibition at 500 µg/mL [2]: 8 mm; zone of inhibition at 750 µg/mL [3]: 5 mm; zone of inhibition at 1000 µg/mL [4]: 4 mm; zone of inhibition at 1000 µg/mL [25]: 3 mm
CN[C@@H]1[C@H](O[C@H]2[C@H](O[C@H]3[C@H](O)[C@@H](O)[C@H](N=C(N)N)[C@@H](O)[C@@H]3N=C(N)N)O[C@@H](C)[C@]2(O)C=O)O[C@@H](CO)[C@H](O)[C@H]1O [STREPTOMYCIN],,,,,,,,,,13,13,14,14,14,14,15,15,15,14,14,zone of inhibition at 1000 µg/mL [25]: 15 mm
N#Cc1c(N)c2c(N)c3c(nc2oc1=O)OC(c1ccccc1)=CC3c1c(-c2ccccc2)[nH]c2ccc(Cl)cc12 (centres undefined),3,3,3,12,12,13,9,9,10,9,8,5,5,5,5,13,13,14,10,10,Activity [1]: Active; zone of inhibition at 500 µg/mL [2]: 5 mm; zone of inhibition at 750 µg/mL [3]: 3 mm; zone of inhibition at 1000 µg/mL [25]: 8 mm
N#Cc1c(N)c2c(N)c3c(nc2oc1=O)OC(c1ccccc1)=CC3c1c(-c2ccccc2)[nH]c2ccccc12 (centres undefined),5,5,5,11,11,11,5,3,10,5,7,3,11,11,10,10,10,9,8,8,Activity [1]: Active; zone of inhibition at 500 µg/mL [2]: 5 mm; zone of inhibition at 750 µg/mL [3]: 3 mm; zone of inhibition at 1000 µg/mL [25]: 10 mm
N#CC1=C(N)OC(c2ccc(Cl)cc2)=CC1c1c(-c2ccccc2)[nH]c2ccccc12 (centres undefined),12,13,13,9,9,3,8,6,5,10,8,8,2,2,2,10,10,10,5,5,Activity [1]: Active; zone of inhibition at 1000 µg/mL [4]: 2 mm; zone of inhibition at 1000 µg/mL [25]: 3 mm
Cc1ccc2[nH]c(-c3ccccc3)c(C3C=C(c4ccccc4)Oc4nc5oc(=O)c(C#N)c(N)c5c(N)c43)c2c1 (centres undefined),9,4,4,11,8,8,10,10,10,3,3,0,4,4,4,9,8,4,10,9,Activity [1]: Active; zone of inhibition at 500 µg/mL [2]: 5 mm; zone of inhibition at 750 µg/mL [3]: 0 mm; zone of inhibition at 1000 µg/mL [25]: 5 mm
OC(Cn1cncn1)(Cn1cncn1)c1ccc(F)cc1F [FLUCONAZOLE],13,14,14,13,14,14,13,13,14,,,,,,,,,,,,zone of inhibition at 500 µg/mL [2]: 13 mm; zone of inhibition at 750 µg/mL [3]: 13 mm; zone of inhibition at 1000 µg/mL [4]: 14 mm
